Measurements: patent publication US11198869B2, “Angelman syndrome antisense treatment” (The Texas A&M University System, priority 2017, dated 2021)

How the values were obtained:
[1] = tested on: UBE3A-AS; assay: UBE3A-AS RNA levels in CNS regions of Cynomolgus macaque after intrathecal lumbar puncture (SYBR Green qRT-PCR); assay type: in vivo, Cynomolgus macaque (Macaca fascicularis); conditions: for UBE3A-AS RNA levels in CNS regions (in words) / Cohen's d, effect size on UBE3A-AS RNA levels in CNS: 10 mg single intrathecal bolus, 28 days; for Difference in UBE3A-AS RNA levels relative to vehicle: Cynomolgus macaque, single 10 mg intrathecal lumbar puncture, 28 days after treatment
Description: The ASO-4 and ASO-6 target regions are conserved across several non-human primate (NHP) species, thus enabling both safety and efficacy studies in a large animal model. To examine the efficacy of ASO-4.4.PS.L and ASO-6.1.PO-1.O in the central nervous system (CNS), ASOs were delivered to Cynomolgus macaques by intrathecal lumbar puncture. Animals were administered a single bolus injection of vehicle (0.9% saline, n=5), ASO-6.1.PO-1.O (10 mg, n=3), and ASO.4.4.PS.L (10 mg, n=3). Twenty-eight days following treatment, central nervous (CNS) tissues were collected and the steady state RNA levels of UBE3A-AS were measured.
NHP studies were performed at Northern Biomedical Research and Charles River Laboratories using protocols approved by the institutions respective Institutional Animal Care and Use Committees. Male and female Cynomolgus macaques (Macaca fascicularis) weighing 2-4 kg were anesthetized and single 1 mL dose of ASO or vehicle was administered via intrathecal lumbar puncture. The dosing solution was prepared by dissolution of lyophilized ASO in the vehicle control article (0.9% sodium chloride) and was filtered through a 0.2-μm filter. CNS and spinal cord samples were harvested, and the CNS was sectioned into 4-mm coronal slices. Tissue samples were flash frozen and stored at −80° C. until RNA isolation.
A 4 mm tissue punch was taken from each region of interest of which approximately half was used for RNA isolation. RNA isolation was performed using the Qiagen RNeasy Plus Mini kit (74136, Qiagen) with tissue disruption and lysis performed with 5 mm stainless steel beads in a TissueLyser II. The RNA was eluted in two volumes of 30 μl water, for a total elution volume of 60 μl. RNA was quantified using the Qubit with the RNA XR assay (Q33224, Thermo Fisher Scientific). cDNA was synthesized from 2 μg of input RNA using the High Capacity RNA-to-cDNA kit (4387406, Thermo Fisher Scientific) in a total reaction volume of 50 μl.
Cynomolgus macaque UBE3A-AS RNA levels were estimated using SYBR Green quantitative reverse-transcription PCR (qRT-PCR). Total reaction volume was 10 μl, including 2 μl of cDNA, 1× PowerUp SYBR Green Master mix (A25741, Thermo Fisher Scientific), and 500 nM of each primer (forward and reverse). Cycling conditions were 2 minutes at 50° C., 2 minutes at 95° C., and 40 cycles of 15 seconds at 95° C. and 1 minute at 60° C., with readings taken at the 60° C. step of every cycle. Reactions were run on a BIO-RAD T1000 CFX96 thermocycler, with internal control (PPIA, forward: […] (SEQ ID NO:503); reverse: […] (SEQ ID NO:504)) and target (UBE3A-AS, forward: […] (SEQ ID NO:505); reverse: […] (SEQ ID NO:506)) reactions performed separately. Data was retrieved and initial analysis was done with the BIORAD CFX Maestro software, with in depth statistical analyses performed with Excel and JMP.

[2] = tested on: UBE3A; assay: UBE3A steady state RNA (qRT-PCR) in glutamatergic iPSC-derived neurons; assay type: cell-based, human; conditions: 14 DIV to 20 DIV, 10-point dose curve
Description: ASO-4 and ASO-6.1 were also examined in glutamatergic iPSC-derived neurons. Glutamatergic iPSC-derived neurons were treated at 14 DIV with a 10-point ½ log dose response curve of ASO-4 and ASO-6.1 [1 nM, 3 nM, 10 nM, 30 nM, 100 nM, 300 nM, 1 μM, 3 μM, 10 μM, and 30 μM (n=3)]. At 20 DIV, the IC50 and Emax of each ASO was estimated as described above (FIG. 5E-F and Table 15).
GABAergic and glutamatergic induced pluripotent stem cell (iPSC) derived neural precursor cells (NRC-100-010-001 and GNC-301-030-001, Cellular Dynamics International, Madison Wis.) were differentiated into neurons according to the manufactures protocol. Briefly, neural precursor cells were thawed and resuspended in chemically defined medium and added to sterile-culture plates coated with poly-D-lysine and laminin. The medium was replaced 24 hr after plating and then one-half of the medium was replaced every 3-5 days afterwards. […]
The steady state RNA levels of target transcripts were measured using TaqMan quantitative reverse-transcription PCR (qRT-PCR) assays. […] Cycling conditions were 2 minutes at 50° C., 10 minutes at 95° C., and 40 cycles of 15 seconds at 95° C. and 1 minute at 60° C., with readings taken at the 60° C. step of every cycle. […] Data was retrieved and analyzed with the BIORAD CFX Maestro software (Bio-Rad Laboratories). […]

[3] = Frontal Cortex (Corona radiata)

Substance | UBE3A-AS RNA levels in CNS regions (in words) [1] | Cohen's d, effect size on UBE3A-AS RNA levels in CNS ([1]; versus ASO-6.1.PO-1.O) | Cohen's d, effect size on UBE3A-AS RNA levels in CNS ([1]; versus Vehicle) | Difference in UBE3A-AS RNA levels relative to vehicle ([1]; Caudate Nucleus) | Difference in UBE3A-AS RNA levels relative to vehicle ([1]; Cerebellum) | Difference in UBE3A-AS RNA levels relative to vehicle [1, 3] | Difference in UBE3A-AS RNA levels relative to vehicle ([1]; Frontal cortex) | Difference in UBE3A-AS RNA levels relative to vehicle ([1]; Globus Pallidus) | Difference in UBE3A-AS RNA levels relative to vehicle ([1]; Hippocampus) | Difference in UBE3A-AS RNA levels relative to vehicle ([1]; Medulla) | Difference in UBE3A-AS RNA levels relative to vehicle ([1]; Motor Cortex) | Difference in UBE3A-AS RNA levels relative to vehicle ([1]; Oculomotor Nucleus) | Difference in UBE3A-AS RNA levels relative to vehicle ([1]; Pons) | Difference in UBE3A-AS RNA levels relative to vehicle ([1]; Putamen) | Difference in UBE3A-AS RNA levels relative to vehicle ([1]; Spinal Cord (Lumbar)) | Difference in UBE3A-AS RNA levels relative to vehicle ([1]; Temporal Lobe) | Difference in UBE3A-AS RNA levels relative to vehicle ([1]; Thalamus) | effect on UBE3A RNA levels (in words) [2]
A^L*G^L*A^L*a*t*g*g*c*a*c*a*t*c*t*5mC^L*T^L*T^L*G^L (NNNATGGCACATCTNNNN; LNA gapmer, PS, 5-methylcytosine, chemistry not fully specified) [ASO-4.4.PS.L] | reduced UBE3A-AS RNA in most CNS regions, with large effects in temporal lobe, primary motor cortex, pons, medulla, hippocampus, globus pallidus, frontal cortex (corona radiata), prefrontal cortex, and lumbar spinal cord | 1.0 | 1.4 | −0.21 | −0.05 | −0.62 | −0.71 | −0.38 | −0.57 | −0.32 | −0.59 | −0.18 | −0.47 | −0.04 | −0.87 | −0.59 | −0.20 | 
C^O*U^O*G^O*G^O*t*g*t*c*a*a*c*a*a*g*C^O*C^O*A^O*A^O [ASO-6.1] |  |  |  |  |  |  |  |  |  |  |  |  |  |  |  |  |  | increased UBE3A RNA levels in a dose dependent manner
C^O*U^O*G^O*G^O-t*g*t*c*a*a*c*a*a*g-C^O*C^O*A^O*A^o [ASO-6.1.PO-1.O] | reduced UBE3A-AS RNA levels in most CNS regions, with large effects observed in pons, oculomotor nucleus, and lumbar spinal cord |  | 0.3 | 0.10 | −0.11 | −0.08 | 0.01 | 0.10 | −0.19 | −0.24 | −0.19 | −0.37 | −0.27 | 0.07 | −0.32 | 0.13 | −0.02 | 
U^O*A^O*G^O*A^O*A^O*t*g*g*c*a*c*a*t*c*t*C^O*U^O*U^O*G^O*G^O [ASO-4] |  |  |  |  |  |  |  |  |  |  |  |  |  |  |  |  |  | increased UBE3A RNA levels in a dose dependent manner
